# Active and inactive are the calls of the source. No rule for the calls is given here.
# Target: MEK5 PB1 domain binding to MEKK2 (MAP3K2) mutant PB1, human
# Assay: mutant MEKK2 PB1-MEK5 interaction blockers – biochemical, bead multiplex flow cytometry, dose response (AID 1895)
# Conditions: Bead-based multiplex flow cytometry
row,EC50,SMILES
1,inactive,C#CCOCCOCCOCCNc1nc(N2CCN(C(=O)[C@H]([C@@H](C)CC)n3cc([C@@H](N)CO)nn3)CC2)nc(N2CCN(C(=O)[C@H](Cc3cc4ccccc4[nH]3)n3cc([C@@H](N)Cc4ccc(O)cc4)nn3)CC2)n1
2,> 30 µM (inactive),CN1C(=O)/C(=C\c2ccc(-c3ccccc3)o2)SC1=S
3,> 30 µM (inactive),CC[C@@H](C)[C@H](CNC)NC[C@@H](Cc1cccc2ccccc12)NCCc1cccc(C(F)(F)F)c1
4,> 30 µM (inactive),CN1CCN(CC(=O)N2CCn3c4c(c5cc(C6CCCCC6)ccc53)CCCC42)CC1 (stereo not drawn)
5,inactive,CCCCn1c(O)c(/C=C/C=C/C=Nc2ccccc2)sc1=S
6,7.18 µM,CCN(Cc1ccccc1)S(=O)(=O)c1ccc(C(=O)N(CCCN(C)C)c2nc3ccc(F)cc3s2)cc1
7,> 30 µM (inactive),Cc1nc(N)sc1-c1csc(Nc2ncccn2)n1
8,inactive,CN(C)c1ccc(/C=C/C=C2/SC(=S)N(c3ccccc3)C2=O)cc1
9,> 30 µM (inactive),COc1ccc(-c2[nH]ncc2CN2CCCCCCC2)c(OC)c1
10,> 30 µM (inactive),CN(C)CCCN(C(=O)c1ccc2c(c1)CCCC2)c1nc2ccc(Cl)cc2s1
11,> 30 µM (inactive),CCCCCCCCCCOC(=O)Cn1c(COc2cccc(C)c2)[n+](C)c2ccccc21
12,> 30 µM (inactive),COc1ccccc1N(CN1C(=O)c2ccccc2C1=O)C(=O)c1cccc(C)c1
13,> 30 µM (inactive),O=[N+]([O-])c1ccc(/C=C/C2=NN(c3ccccc3)C(c3ccco3)C2)o1 (stereo not drawn)
14,> 30 µM (inactive),CCN(CC)CCOC(=O)c1ccc(N/C=C(/C#N)c2nc(-c3ccc4c(c3)OCO4)cs2)cc1
15,4.92 µM,Cc1ccc(CN2CCSc3ccc(C(=O)NC4CCN(Cc5ccccc5)CC4)cc32)cc1
16,> 30 µM (inactive),Nc1ccc(Nc2ccccc2N)cc1
17,1.44 µM,C#CCOCCOCCOCCNc1nc(N2CCN(C(=O)[C@H](Cc3cc4ccccc4[nH]3)n3cc([C@@H](N)CC(C)C)nn3)CC2)nc(N2CCN(C(=O)[C@H](Cc3cc4ccccc4[nH]3)n3cc([C@@H](N)CC(C)C)nn3)CC2)n1
18,> 30 µM (inactive),COc1ccc(-n2nc3c(N)n[nH]c3cc2=O)cc1
19,> 30 µM (inactive),CCc1ccc(Nc2n[n+](-c3ccccc3)c(-c3ccc(OCc4ccccc4)cc3)s2)cc1
20,5.01 µM,CCN(CC)CCNC(=O)c1ccc(NC(=O)c2cn(-c3ccccc3)nc2-c2cccs2)cc1
21,5.31 µM,COc1cc2nc(N3CCN(c4cc(C)ccc4C)CC3)nc(N)c2cc1OC
22,> 30 µM (inactive),CN(C)CCCn1c(SCC(=O)Nc2nc(-c3cccc(Br)c3)cs2)nc2ccccc2c1=O
23,> 30 µM (inactive),O=C(Nc1ccc(Cl)cn1)c1ccc2c(Cl)c3c(nc2c1)CCC3
24,7.06 µM,FC(F)(F)c1cccc(NC(=S)N(CCCN2CCCC2)Cc2cccn2Cc2ccc(Cl)cc2)c1
25,4.9 µM,CCN(CC)CCOC(=O)c1ccc(N/C=C(/C#N)c2nc(-c3cc4ccccc4oc3=O)cs2)cc1
26,0.5 µM,CCN1CCN(Cc2ccc(NC(=O)c3cc(NC(=O)C(=O)c4c[nH]c5ccccc45)cc(OC)c3)cc2C(F)(F)F)CC1

row,EC50,SMILES
1,12.1 µM,CCOc1cccc2sc(N(CCCN(C)C)C(=O)c3ccc(S(=O)(=O)N4CCc5ccccc5C4)cc3)nc12
2,> 30 µM (inactive),Cc1cc(N=Nc2ccc(C)c(N=Nc3cc(C)c(N)cc3N)c2)c(N)cc1N
3,inactive,CCOC(=O)C(C(=O)OCC)c1cc(Br)c2noc3c2c1C(=O)c1ccccc1-3
4,> 30 µM (inactive),C#CCOCCOCCOCCNc1nc(N2CCN(C(=O)[C@H](Cc3ccc(O)cc3)n3cc([C@@H](N)C(C)CC)nn3)CC2)nc(N2CCN(C(=O)[C@H](Cc3cc4ccccc4[nH]3)n3cc([C@@H](N)Cc4ccc(O)cc4)nn3)CC2)n1 (stereo partly drawn)
5,3.78 µM,C#CCOCCOCCOCCNc1nc(N2CCN(C(=O)[C@H](Cc3cc4ccccc4[nH]3)n3cc([C@@H](N)C(C)CC)nn3)CC2)nc(N2CCN(C(=O)[C@H](Cc3cc4ccccc4[nH]3)n3cc([C@@H](N)Cc4ccc(O)cc4)nn3)CC2)n1 (stereo partly drawn)
6,> 30 µM (inactive),COc1ccc2[nH]c3c(C)c4ccncc4c(C)c3c2c1
7,> 30 µM (inactive),Cc1ccc(-c2c[n+](CC(=O)Nc3nc(-c4ccc(F)cc4)cs3)c3n2CCC3)cc1
8,0.51 µM,CCC(/C=C1\Sc2ccc(OC)cc2N1CCO)=C\c1sc2ccc(OC)cc2[n+]1CCO
9,> 30 µM (inactive),CCCCCCCCCCOC(=O)Cn1c(COc2ccc(OC)cc2)[n+](C)c2ccccc21
10,> 30 µM (inactive),COc1ccc2nc(C)cc(N/N=C/c3ccc(F)cc3)c2c1
11,> 30 µM (inactive),Cc1ccnc(NC(=O)C2(c3cccs3)CCOCC2)c1
12,> 30 µM (inactive),CCN1/C(=C\c2ccc3cc(C)ccc3[n+]2CC)Sc2cc(C)c(C)cc21
13,> 30 µM (inactive),CCCCCCCCCC[N+](C)(C)CC/C=C1/c2ccccc2Sc2ccc(Cl)cc21
14,> 30 µM (inactive),Cc1sc(NC(=O)c2ccccc2)c(C(c2ccccn2)N2CCN(CCO)CC2)c1C (stereo not drawn)
15,> 30 µM (inactive),Brc1ccc(N=C/C=C/C=C/Nc2ccc(Br)cc2)cc1
16,21.5 µM,CCCCCCCCCCOC(=O)Cn1c(COc2cccc(OC)c2)[n+](C)c2ccccc21
17,4.57 µM,CCCCCCCCCCOC(=O)Cn1c(COc2ccc(C)cc2)[n+](C)c2ccccc21
18,> 30 µM (inactive),C#CCOCCOCCOCCNc1nc(N2CCN(C(=O)C([C@@H](C)CC)n3cc(C(N)COC(=O)C(F)(F)F)nn3)CC2)nc(N2CCN(C(=O)[C@H](CCCCN)n3cc(C(N)[C@H](C)CC)nn3)CC2)n1 (stereo partly drawn)
19,4.1 µM,C#CCOCCOCCOCCNc1nc(N2CCN(C(=O)C(Cc3cc4ccccc4[nH]3)n3cc(C(N)C(C)CC)nn3)CC2)nc(N2CCN(C(=O)C(Cc3cc4ccccc4[nH]3)n3cc(C(N)C(C)CC)nn3)CC2)n1 (stereo not drawn)
20,7.1 µM,CSc1cccc(NC(=S)N(CCCN2CCCC2)Cc2cccn2Cc2ccc(Cl)cc2)c1
21,inactive,CS(=O)(=O)N1N=C(c2ccccc2)CC1c1ccc2c(c1)OCO2 (stereo not drawn)
22,> 30 µM (inactive),Cc1ccc(-n2cc(CNCCCn3ccnc3C)c(-c3ccc(F)cc3)n2)cc1
23,> 30 µM (inactive),COc1ccc(CNC[C@@H](CCCCN(C)Cc2ccc(OC)cc2)N2C[C@H](c3ccccc3)N(CCc3ccc(Cl)c(Cl)c3)C(=O)C2=O)cc1
24,5.14 µM,CN1C(=CC=C2C=C(I)C(=O)C(I)=C2)C(C)(C)c2ccccc21
25,> 30 µM (inactive),COc1ccc(N2CC(C(=O)Nc3nnc(SCc4ccccn4)s3)CC2=O)cc1 (stereo not drawn)
26,> 30 µM (inactive),CN(C)CCCNc1cc(C(C)(C)C)nc2c(-c3ccc(Cl)cc3)cnn12

row,EC50,SMILES
1,> 30 µM (inactive),CCN1/C(=C/C=C/C=C/C=C/c2sc3ccccc3[n+]2CC)Sc2ccccc21
2,> 30 µM (inactive),S=c1[nH]nc(-c2ccc(Cl)cc2)n1-c1ccc2c(c1)OCCO2
3,> 30 µM (inactive),COc1cccc(OC)c1-c1nn2c(-c3cc(-c4ccccc4)n[nH]3)nnc2s1
4,> 30 µM (inactive),COc1ccc2nc(C)cc(N/N=C/c3cccc(OC)c3O)c2c1
5,3.35 µM,CCN1C(c2ccccc2)=C(c2ccccc2)S/C1=C\C=C1/SC(=S)N(C)C1=O
6,> 30 µM (inactive),COc1cc(/C=N/NC(=O)c2cc3ccccc3cc2O)ccc1OCCN1CCCCC1
7,> 30 µM (inactive),CNC(=O)C(=O)Nc1c(C)cc(C)cc1C
8,5.27 µM,CCc1ccc(-c2nn(-c3ccccc3)cc2CSC(=N)N)cc1
9,11.2 µM,CCCN(CCC)CCNC(=O)c1cc2c(-c3ccc(Cl)cc3)nn(C)c2s1
10,> 30 µM (inactive),CN1CCN(c2ccc(NC(=O)c3ccc(-c4ccc(Cl)cc4)o3)cc2)CC1
11,> 30 µM (inactive),COc1ccccc1N1CCN(S(=O)(=O)c2ccc(Cl)s2)CC1
12,5.85 µM,S=C(Nc1cccc(Cl)c1)N(CCCN1CCCC1)Cc1cccn1Cc1ccc(Cl)cc1
13,11.1 µM,C#CCOCCOCCOCCNc1nc(N2CCN(C(=O)[C@H](CCCCN)n3cc([C@@H](N)CC(C)C)nn3)CC2)nc(N2CCN(C(=O)[C@H](Cc3cc4ccccc4[nH]3)n3cc([C@@H](N)Cc4ccc(O)cc4)nn3)CC2)n1
14,3.62 µM,C#CCOCCOCCOCCNc1nc(N2CCN(C(=O)[C@H](Cc3cc4ccccc4[nH]3)n3cc([C@@H](N)C(C)CC)nn3)CC2)nc(N2CCN(C(=O)[C@H](Cc3cc4ccccc4[nH]3)n3cc([C@@H](N)CC(C)C)nn3)CC2)n1 (stereo partly drawn)
15,20.9 µM,C#CCOCCOCCOCCNc1nc(N2CCN(C(=O)[C@H]([C@@H](C)CC)n3cc([C@@H](N)CC(C)C)nn3)CC2)nc(N2CCN(C(=O)[C@H](Cc3cc4ccccc4[nH]3)n3cc([C@@H](N)CC(C)C)nn3)CC2)n1
16,> 30 µM (inactive),Nc1ccc2nc(-c3ccc(-c4nc5ccc(N)cc5[nH]4)cc3)[nH]c2c1
17,> 30 µM (inactive),C=CC#CC[N+]1(CC#Cc2ccccc2)CCOCC1
18,12.8 µM,C#CCOCCOCCOCCNc1nc(N2CCN(C(=O)C(Cc3ccc(O)cc3)n3cc(C(N)CC(C)C)nn3)CC2)nc(N2CCN(C(=O)C(Cc3cc4ccccc4[nH]3)n3cc(C(N)Cc4ccc(O)cc4)nn3)CC2)n1 (stereo not drawn)
19,10.3 µM,C#CCOCCOCCOCCNc1nc(N2CCN(C(=O)[C@H](Cc3cc4ccccc4[nH]3)n3cc([C@@H](N)C(C)CC)nn3)CC2)nc(N2CCN(C(=O)[C@H](CCCCN)n3cc([C@@H](N)CC(C)C)nn3)CC2)n1 (stereo partly drawn)
20,26.4 µM,CCCCCc1cc(=O)oc2c(C(CCN3CCCC3)c3ccc(N(C)C)cc3)c(OC)cc(OC)c12 (stereo not drawn)
21,> 30 µM (inactive),O=C(Nc1ccc(C2=NCCN2)cc1)c1ccc(C(=O)Nc2ccc(C3=NCCN3)cc2)c([N+](=O)[O-])c1
22,> 30 µM (inactive),COCc1c(C#N)c(NCCc2ccccc2)nc(C)c1[N+](=O)[O-]
23,1.09 µM,CCOC(=O)c1c(-c2ccc(-c3ccccc3)cc2)csc1NC(=O)CNCCN(C)C
24,> 30 µM (inactive),O=C(c1cc(COc2c(F)cccc2F)on1)N1C[C@H]2CC[C@H]1C2

row,SMILES,EC50
1,CN(C)c1ccc(NC(=O)CN2CCC(O)(c3ccccc3)CC2)cc1,> 30 µM (inactive)

# Same assay, conditions: Bead-based multiplex flow cytometry, measured here: Ki for PB1 binding
row,Ki,SMILES
1,4.8 µM,CCN(CC)CCOC(=O)c1ccc(N/C=C(/C#N)c2nc(-c3cc4ccccc4oc3=O)cs2)cc1
2,2.9 µM,CCOC(=O)C(C(=O)OCC)c1cc(Br)c2noc3c2c1C(=O)c1ccccc1-3
3,0.5 µM,CCC(/C=C1\Sc2ccc(OC)cc2N1CCO)=C\c1sc2ccc(OC)cc2[n+]1CCO
4,0.95 µM,CS(=O)(=O)N1N=C(c2ccccc2)CC1c1ccc2c(c1)OCO2 (stereo not drawn)
5,5.04 µM,CN1C(=CC=C2C=C(I)C(=O)C(I)=C2)C(C)(C)c2ccccc21
6,3.28 µM,CCN1C(c2ccccc2)=C(c2ccccc2)S/C1=C\C=C1/SC(=S)N(C)C1=O

# Source: PubChem BioAssay AID1895 (NMMLSC, 2009)
